# In PubChem BioAssay (NCI):
#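 Grown in 96-well plates, cells were treated for 48 hours with each compound at five concentrations. Insufficient inhibition: endpoint recorded as highest concentration tested. Here, GI50 denotes the concentration required for 50% inhibition of growth. TGI: concentration producing complete growth inhibition.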
# Legend:
# Experiment in all cases: growth of human tumour cells (NCI), 48 h
# UACC-62 melanoma = tested on: UACC-62 melanoma
# RXF 393 renal = tested on: RXF 393 renal
# OVCAR-3 ovarian = tested on: OVCAR-3 ovarian
# RPMI-8226 leukemia = tested on: RPMI-8226 leukemia
# HOP-92 NSCLC = tested on: HOP-92 NSCLC
# TK-10 renal = tested on: TK-10 renal
# T-47D breast = tested on: T-47D breast
# HT29 colon = tested on: HT29 colon
# SK-MEL-28 melanoma = tested on: SK-MEL-28 melanoma
# HS 578T breast = tested on: HS 578T breast
# M14 melanoma = tested on: M14 melanoma
# OVCAR-8 ovarian = tested on: OVCAR-8 ovarian
# 786-0 renal = tested on: 786-0 renal
# SW-620 colon = tested on: SW-620 colon
# NCI-H522 lung = tested on: NCI-H522 lung
# ACHN renal = tested on: ACHN renal
# SF-268 CNS = tested on: SF-268 CNS
# MDA-MB-435 = tested on: MDA-MB-435
# MOLT-4 leukemia = tested on: MOLT-4 leukemia
# OVCAR-5 ovarian = tested on: OVCAR-5 ovarian
# EKVX NSCLC = tested on: EKVX NSCLC
# K-562 leukemia = tested on: K-562 leukemia
# CCRF-CEM leukemia = tested on: CCRF-CEM leukemia
# U251 CNS = tested on: U251 CNS
# COLO 205 colon = tested on: COLO 205 colon
# PC-3 prostate = tested on: PC-3 prostate
# SR leukemia = tested on: SR leukemia
# A549 NSCLC = tested on: A549 NSCLC
# SK-OV-3 ovarian = tested on: SK-OV-3 ovarian
# SF-539 CNS = tested on: SF-539 CNS
# IGROV1 ovarian = tested on: IGROV1 ovarian
# HCC-2998 colon = tested on: HCC-2998 colon
# NCI-H226 lung = tested on: NCI-H226 lung
# HL-60(TB) leukemia = tested on: HL-60(TB) leukemia
# MALME-3M melanoma = tested on: MALME-3M melanoma
# SK-MEL-5 melanoma = tested on: SK-MEL-5 melanoma
# KM12 colon = tested on: KM12 colon
# SNB-19 CNS = tested on: SNB-19 CNS
# LOX IMVI melanoma = tested on: LOX IMVI melanoma
# A498 renal = tested on: A498 renal
# OVCAR-4 ovarian = tested on: OVCAR-4 ovarian
# MDA-MB-468 breast = tested on: MDA-MB-468 breast
# HOP-62 NSCLC = tested on: HOP-62 NSCLC
# HCT-15 colon = tested on: HCT-15 colon
# UACC-257 melanoma = tested on: UACC-257 melanoma
# SN12C renal = tested on: SN12C renal
# BT-549 breast = tested on: BT-549 breast
# NCI-H460 lung = tested on: NCI-H460 lung
# HCT-116 colon = tested on: HCT-116 colon
# NCI-H23 lung = tested on: NCI-H23 lung
# DU-145 prostate = tested on: DU-145 prostate
# CAKI-1 renal = tested on: CAKI-1 renal
# NCI/ADR-RES ovarian = tested on: NCI/ADR-RES ovarian
# SF-295 CNS = tested on: SF-295 CNS
# MCF7 breast = tested on: MCF7 breast
structure (smiles),measurement,setting,value
NCCCCn1c(SCCc2c[nH]c3ccccc23)nnc1-c1ccc2ccccc2n1,GI50,UACC-62 melanoma,5.46 µM
same,TGI,UACC-62 melanoma,10.2 µM
same,GI50,RXF 393 renal,4.8 µM
same,TGI,RXF 393 renal,9.4 µM
same,GI50,OVCAR-3 ovarian,5.16 µM
same,TGI,OVCAR-3 ovarian,10.2 µM
same,GI50,RPMI-8226 leukemia,5.41 µM
same,TGI,RPMI-8226 leukemia,13.9 µM
same,GI50,HOP-92 NSCLC,4.59 µM
same,TGI,HOP-92 NSCLC,10.5 µM
same,GI50,TK-10 renal,5.91 µM
same,TGI,TK-10 renal,10.9 µM
same,GI50,T-47D breast,6.08 µM
same,TGI,T-47D breast,14.6 µM
same,GI50,HT29 colon,5.28 µM
same,TGI,HT29 colon,10.4 µM
same,GI50,SK-MEL-28 melanoma,5.94 µM
same,TGI,SK-MEL-28 melanoma,10.8 µM
same,GI50,HS 578T breast,5.6 µM
same,TGI,HS 578T breast,14.6 µM
same,GI50,M14 melanoma,5.48 µM
same,TGI,M14 melanoma,10.4 µM
same,GI50,OVCAR-8 ovarian,5.63 µM
same,TGI,OVCAR-8 ovarian,10.8 µM
same,GI50,786-0 renal,5.9 µM
same,TGI,786-0 renal,10.9 µM
same,GI50,SW-620 colon,5.51 µM
same,TGI,SW-620 colon,11.1 µM
same,GI50,NCI-H522 lung,5.35 µM
same,TGI,NCI-H522 lung,10.4 µM
same,GI50,ACHN renal,5.42 µM
same,TGI,ACHN renal,10.3 µM
same,GI50,SF-268 CNS,5.69 µM
same,TGI,SF-268 CNS,12.1 µM
same,GI50,MDA-MB-435,6.27 µM
same,TGI,MDA-MB-435,11.8 µM
same,GI50,MOLT-4 leukemia,5.47 µM
same,TGI,MOLT-4 leukemia,13.1 µM
same,GI50,OVCAR-5 ovarian,5.66 µM
same,TGI,OVCAR-5 ovarian,10.8 µM
same,GI50,EKVX NSCLC,5.32 µM
same,TGI,EKVX NSCLC,10.6 µM
same,GI50,K-562 leukemia,5.58 µM
same,TGI,K-562 leukemia,13.2 µM
same,GI50,CCRF-CEM leukemia,7.21 µM
same,TGI,CCRF-CEM leukemia,20.3 µM
same,GI50,U251 CNS,5.36 µM
same,TGI,U251 CNS,10.2 µM
same,GI50,COLO 205 colon,4.54 µM
same,TGI,COLO 205 colon,9.3 µM
same,GI50,PC-3 prostate,5.35 µM
same,TGI,PC-3 prostate,11.6 µM
same,GI50,SR leukemia,5.88 µM
same,TGI,SR leukemia,12.7 µM
same,GI50,A549 NSCLC,5.1 µM
same,TGI,A549 NSCLC,9.87 µM
same,GI50,SK-OV-3 ovarian,5.69 µM
same,TGI,SK-OV-3 ovarian,11.2 µM
same,GI50,SF-539 CNS,5.85 µM
same,TGI,SF-539 CNS,10.6 µM
same,GI50,IGROV1 ovarian,5.84 µM
same,TGI,IGROV1 ovarian,11.1 µM
same,GI50,HCC-2998 colon,6.01 µM
same,TGI,HCC-2998 colon,10.9 µM
same,GI50,NCI-H226 lung,5.29 µM
same,TGI,NCI-H226 lung,10.8 µM
same,GI50,HL-60(TB) leukemia,4.99 µM
same,TGI,HL-60(TB) leukemia,11.4 µM
same,GI50,MALME-3M melanoma,5.35 µM
same,TGI,MALME-3M melanoma,10.3 µM
same,GI50,SK-MEL-5 melanoma,5.84 µM
same,TGI,SK-MEL-5 melanoma,10.6 µM
same,GI50,KM12 colon,6.54 µM
same,TGI,KM12 colon,12.3 µM
same,GI50,SNB-19 CNS,6.3 µM
same,TGI,SNB-19 CNS,12.8 µM
same,GI50,LOX IMVI melanoma,5.28 µM
same,TGI,LOX IMVI melanoma,10 µM
same,GI50,A498 renal,6.06 µM
same,TGI,A498 renal,11.2 µM
same,GI50,OVCAR-4 ovarian,5.75 µM
same,TGI,OVCAR-4 ovarian,12 µM
same,GI50,MDA-MB-468 breast,4.94 µM
same,TGI,MDA-MB-468 breast,9.58 µM
same,GI50,HOP-62 NSCLC,5.35 µM
same,TGI,HOP-62 NSCLC,10.5 µM
same,GI50,HCT-15 colon,6.26 µM
same,TGI,HCT-15 colon,11.5 µM
same,GI50,UACC-257 melanoma,5.78 µM
same,TGI,UACC-257 melanoma,11 µM
same,GI50,SN12C renal,5.6 µM
same,TGI,SN12C renal,10.5 µM
same,GI50,BT-549 breast,5.67 µM
same,TGI,BT-549 breast,10.7 µM
same,GI50,NCI-H460 lung,6.17 µM
same,TGI,NCI-H460 lung,11.7 µM
same,GI50,HCT-116 colon,4.74 µM
same,TGI,HCT-116 colon,9.31 µM
same,GI50,NCI-H23 lung,5.57 µM
same,TGI,NCI-H23 lung,10.5 µM
same,GI50,DU-145 prostate,6.51 µM
same,TGI,DU-145 prostate,12.2 µM
same,GI50,CAKI-1 renal,5.74 µM
same,TGI,CAKI-1 renal,11.9 µM
same,GI50,NCI/ADR-RES ovarian,6.29 µM
same,TGI,NCI/ADR-RES ovarian,13.4 µM
same,GI50,SF-295 CNS,5.65 µM
same,TGI,SF-295 CNS,10.7 µM
same,GI50,MCF7 breast,5.38 µM
same,TGI,MCF7 breast,10.4 µM
